Results taken from patent publication US20250340591A1, “COMPOSITION FOR PREVENTING OR TREATING INFLAMMATORY BOWEL DISEASE CONTAINING NOVEL COMPOUND” (ANYGEN CO., LTD., priority 2021, published 2025).
Square brackets hold non-standard residues; d marks the D form. Ends that are not written are not given here. Peptide text beside a SMILES is read from it. * marks the point of attachment. His(Trt) = N[C@@H](Cc1cn(C(c2ccccc2)(c2ccccc2)c2ccccc2)cn1)C(=O)O; His(τ-CHPh2) = N[C@@H](Cc1cn(C(c2ccccc2)c2ccccc2)cn1)C(=O)O; His(τ-Bzl) = N[C@@H](Cc1cn(Cc2ccccc2)cn1)C(=O)O; Tyr(3-Cl) = N[C@@H](Cc1ccc(O)c(Cl)c1)C(=O)O; sY = N[C@@H](Cc1ccc(OS(=O)(=O)O)cc1)C(=O)O; dPhe(4-Br) = N[C@H](Cc1ccc(Br)cc1)C(=O)O; dPhe(4-Me) = Cc1ccc(C[C@@H](N)C(=O)O)cc1; Lauroyl = CCCCCCCCCCCC(=O)*; Octanoyl = CCCCCCCC(=O)*

The compounds below were run against T1, GPR39 (Homo sapiens, UniProt O43194) (assay: luciferase assay system (SRE luciferase reporter gene, CV-1 cells expressing GPR39)). Conditions: not given.
T1 sequence (O43194 1-453): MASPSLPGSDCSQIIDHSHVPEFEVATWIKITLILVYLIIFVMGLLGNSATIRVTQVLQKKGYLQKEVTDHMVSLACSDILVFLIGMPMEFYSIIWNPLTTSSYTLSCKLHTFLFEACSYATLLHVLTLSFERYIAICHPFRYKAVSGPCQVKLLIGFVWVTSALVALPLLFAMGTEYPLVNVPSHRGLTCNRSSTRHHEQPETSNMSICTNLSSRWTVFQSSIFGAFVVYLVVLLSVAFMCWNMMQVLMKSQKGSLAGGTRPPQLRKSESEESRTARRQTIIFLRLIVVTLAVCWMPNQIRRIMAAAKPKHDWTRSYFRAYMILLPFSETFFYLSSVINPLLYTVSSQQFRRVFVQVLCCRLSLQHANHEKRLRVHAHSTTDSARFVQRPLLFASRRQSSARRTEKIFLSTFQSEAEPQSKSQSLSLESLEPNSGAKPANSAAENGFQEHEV
Type: cell-based
Set-up: expressed in transfected cells; host or cells: CV-1 fibroblast cell line (Korea Cell Line Bank), adenoviral transduction at 50 MOI

| Compound | ECmax (−fold induction over basal) [fold induction over basal] |
| --- | --- |
| CCCCCCCC(=O)NCCCC[C@H](NC(=O)[C@@H](N)Cc1cn(CCC2CCCCC2)cn1)C(=O)N[C@@H](Cc1ccccc1)C(=O)N[C@@H](Cc1ccc(O)cc1)C(=O)O [HKFY-11, N2-(Nt-(2-cyclohexylethyl)-L-histidyl)-N6-octanoyl-L-lysyl-L-phenylalanyl-L-tyrosine] | 22 ± 2.2 |
| N2-(Nt-(naphthalen-1-ylmethyl)-L-histidyl)-N6-octanoyl-L-lysyl-L-phenylalanyl-L-tyrosine (H(naphthalen‑1‑ylmethyl)K(Octanoyl)FY-OH) [HKFY-10] | 14 ± 2.12 |
| CCCCCCCC(=O)NCCCC[C@H](NC(=O)[C@@H](N)Cc1cn(C(c2ccccc2)c2ccccc2)cn1)C(=O)N[C@H](Cc1ccc(C)cc1)C(=O)N[C@@H](Cc1ccc(OS(=O)(=O)O)cc1)C(=O)O [HKFY-35, (S)-2-((R)-2-((S)-2-((S)-2-amino-3-(1-benzhydryl-1H-imidazol-4-yl)propanamido)-6-octanamidohexanamido)-3-(p-tolyl)propanamido)-3-(4-(sulfooxy)phenyl)propanoic acid] (H-[His(τ-CHPh2)]K(Octanoyl)[dPhe(4-Me)][sY]-OH) | 18.9 ± 0.41 |
| CCCCCCCC(=O)NCCCC[C@H](NC(=O)[C@@H](N)Cc1cn(C(c2ccccc2)c2ccc(F)cc2F)cn1)C(=O)N[C@H](Cc1ccc(C)cc1)C(=O)N[C@@H](Cc1ccc(O)cc1)C(=O)O (stereo partly drawn) [HKFY-32, ((2R)-2-((2S)-2-((2S)-2-amino-3-(1-((2,4-difluorophenyl)(phenyl)methyl)-1H-imidazol-4-yl)propanamido)-6-octanamidohexanamido)-3-(p-tolyl)propanoyl)-L-tyrosine] | 21.5 ± 2.7 |
| CCCCCCCC(=O)NCCCC[C@H](NC(=O)[C@@H](N)Cc1cn(C(c2ccccc2)c2ccccc2)cn1)C(=O)N[C@@H](Cc1ccccc1)C(=O)N[C@@H](Cc1ccc(O)cc1)C(=O)O [HKFY-33, N2-(Nt-benzhydryl-L-histidyl)-N6-octanoyl-L-lysyl-L-phenylalanyl-L-tyrosine] (H-[His(τ-CHPh2)]K(Octanoyl)FY-OH) | 20 ± 0.57 |
| CCCCCCCC(=O)NCCCC[C@H](NC(=O)[C@@H](N)Cc1cn(C(c2ccccc2)c2ccccc2)cn1)C(=O)N[C@H](Cc1ccc(C)cc1)C(=O)N[C@@H](Cc1ccc(O)cc1)C(N)=O [HKFY-66, N-((S)-5-((S)-2-amino-3-(1-benzhydryl-1H-imidazol-4-yl)propanamido)-6-(((R)-1-(((S)-1-amino-3-(4-hydroxyphenyl)-1-oxopropan-2-yl)amino)-1-oxo-3-(p-tolyl)propan-2-yl)amino)-6-oxohexyl)octanamide] (H-[His(τ-CHPh2)]K(Octanoyl)[dPhe(4-Me)]Y-NH2) | 20.2 ± 3.5 |
| CCCCCCCC(=O)NCCCC[C@H](NC(=O)[C@@H](N)Cc1cn(C(c2ccccc2)(c2ccccc2)c2ccc(C)cc2)cn1)C(=O)N[C@@H](Cc1ccccc1)C(=O)N[C@@H](Cc1ccc(O)cc1)C(=O)O [HKFY-5, N2-(Nt-(diphenyl(p-tolyl)methyl)-L-histidyl)-N6-octanoyl-L-lysyl-L-phenylalanyl-L-tyrosine] | 16 ± 1.7 |
| C=C(CCCCCCC)NCCCC[C@H](NC(=O)[C@@H](N)Cc1cn(C(c2ccccc2)(c2ccccc2)c2ccccc2)cn1)C(=O)N[C@H](Cc1ccc(Cl)cc1)C(=O)N[C@@H](Cc1ccc(O)cc1)C(=O)O [HKFY-13, ((R)-2-((S)-2-((S)-2-amino-3-(1-trityl-1H-imidazol-4-yl)propanamido)-6-(non-1-en-2-ylamino)hexanamido)-3-(4-chlorophenyl)propanoyl)-L-tyrosine] | 25.7 ± 2.4 |
| CCCCCCCC(=O)NCCCC[C@H](NC(=O)[C@H](Cc1cn(C(c2ccccc2)(c2ccccc2)c2ccccc2)cn1)NC(=O)[C@H](CO)NC(=O)CN)C(=O)N[C@@H](Cc1ccccc1)C(=O)N[C@@H](Cc1ccc(O)cc1)C(=O)O [HKFY-37, N2-(Na-glycyl-L-seryl-Nt-trityl-L-histidyl)-N6-octanoyl-L-lysyl-L-phenylalanyl-L-tyrosine] (H-GS[His(Trt)]K(Octanoyl)FY-OH) | 16 ± 1.7 |
| CCCCCCCC(=O)NCCCC[C@H](NC(=O)[C@@H](N)Cc1cn(Cc2ccccc2)cn1)C(=O)N[C@@H](Cc1ccccc1)C(=O)N[C@@H](Cc1ccc(O)cc1)C(=O)O [HKFY-3, N2-(Nt-benzyl-L-histidyl)-N6-octanoyl-L-lysyl-L-phenylalanyl-L-tyrosine] (H-[His(τ-Bzl)]K(Octanoyl)FY-OH) | 9.2 ± 2.58 |
| CCCCCCCC(=O)NCCCC[C@H](NC(=O)[C@@H](N)Cc1c[nH]c(-c2cccs2)n1)C(=O)N[C@H](Cc1ccc(C)cc1)C(=O)N[C@@H](Cc1ccc(O)cc1)C(=O)O [HKFY-63, ((R)-2-((S)-2-((S)-2-amino-3-(2-(thiophen-2-yl)-1H-imidazol-4-yl)propanamido)-6-octanamidohexanamido)-3-(p-tolyl)propanoyl)-L-tyrosine] | 13.5 ± 1.8 |
| CCCCCCCC(=O)NCCCC[C@H](NC(=O)[C@@H](N)Cc1cn(-c2ccccc2)cn1)C(=O)N[C@H](Cc1ccc(C)cc1)C(=O)N[C@@H](Cc1ccc(O)cc1)C(=O)O [HKFY-58, ((R)-2-((S)-2-((S)-2-amino-3-(1-phenyl-1H-imidazol-4-yl)propanamido)-6-octanamidohexanamido)-3-(p-tolyl)propanoyl)-L-tyrosine] | 9.12 ± 2.1 |
| CCCCCCCC(=O)NCCCC[C@H](NC(=O)[C@@H](N)Cc1cn(C(c2ccccc2)(c2ccccc2)c2ccccc2)cn1)C(=O)N[C@@H](Cc1ccccc1)C(=O)N[C@@H](Cc1ccc(O)cc1)C(=O)N[C@@H](Cc1c[nH]cn1)C(=O)N[C@@H](CCC(N)=O)C(=O)N[C@@H](CCC(N)=O)C(=O)N[C@@H](C)C(=O)N[C@@H](CCCNC(=N)N)C(=O)N[C@@H](Cc1ccccc1)C(N)=O [HKFY-42, (S)-2-((2S,5S,8S,11S)-2-((1H-imidazol-4-yl)methyl)-11-((S)-2-amino-3-(1-trityl-1H-imidazol-4-yl)propanamido)-8-benzyl-5-(4-hydroxybenzyl)-4,7,10,17-tetraoxo-3,6,9,16-tetraazatetracosanamido)-N1-((S)-5-amino-1-(((S)-1-(((S)-1-(((S)-1-amino-1-oxo-3-phenylpropan-2-yl)amino)-5-guanidino-1-oxopentan-2-yl)amino)-1-oxopropan-2-yl)amino)-1,5-dioxopentan-2-yl)pentanediamide] (H-[His(Trt)]K(Octanoyl)FYHQQARF-NH2) | 11.8 ± 0.02 |
| CCCCCCCC(=O)NCCCC[C@H](NC(=O)[C@@H](N)Cc1cn(C(c2ccccc2)c2ccccc2)cn1)C(=O)N[C@H](Cc1ccc(C)cc1)C(=O)N[C@@H](Cc1ccc(O)c(Cl)c1)C(=O)O [HKFY-67, (S)-2-((R)-2-((S)-2-((S)-2-amino-3-(1-benzhydryl-1H-imidazol-4-yl)propanamido)-6-octanamidohexanamido)-3-(p-tolyl)propanamido)-3-(3-chloro-4-hydroxyphenyl)propanoic acid] (H-[His(τ-CHPh2)]K(Octanoyl)[dPhe(4-Me)][Tyr(3-Cl)]-OH) | 10.2 ± 1.51 |
| CCCCCCCCCCCC(=O)NCCCC[C@H](NC(=O)[C@@H](N)Cc1cn(C(c2ccccc2)(c2ccccc2)c2ccccc2)cn1)C(=O)N[C@@H](Cc1ccccc1)C(=O)N[C@@H](Cc1ccc(O)cc1)C(=O)O [HKFY-25, N6-dodecanoyl-N2-(Nt-trityl-L-histidyl)-L-lysyl-L-phenylalanyl-L-tyrosine] (H-[His(Trt)]K(Lauroyl)FY-OH) | 7.72 ± 0.57 |
| CCCCCCCC(=O)NCCCC[C@H](N)C(=O)N[C@@H](Cc1ccccc1)C(=O)N[C@@H](Cc1ccc(O)cc1)C(=O)O [HKFY-54, N6-octanoyl-L-lysyl-L-phenylalanyl-L-tyrosine] (H-Lys(Octanoyl)-Phe-Tyr-OH) | 7.8 ± 2.5 |
| CCCCCCCC(=O)NCCCC[C@H](NC(=O)[C@@H](N)Cc1cn(C(c2ccccc2)(c2ccccc2)c2ccccc2)cn1)C(=O)N[C@H](Cc1ccc(Br)cc1)C(=O)N[C@@H](Cc1ccc(O)cc1)C(=O)O [HKFY-29, ((R)-2-((S)-2-((S)-2-amino-3-(1-trityl-1H-imidazol-4-yl)propanamido)-6-octanamidohexanamido)-3-(4-bromophenyl)propanoyl)-L-tyrosine] (H-[His(Trt)]K(Octanoyl)[dPhe(4-Br)]Y-OH) | 26.8 ± 1.87 |

Same assay, conditions: CV-1 cells, GPR39 and SRE luciferase adenovirus, 6 hours treatment

| Compound | EC50 [µM] |
| --- | --- |
| N2-(Nt-(naphthalen-1-ylmethyl)-L-histidyl)-N6-octanoyl-L-lysyl-L-phenylalanyl-L-tyrosine (H(naphthalen‑1‑ylmethyl)K(Octanoyl)FY-OH) [HKFY-10] | 46.5 ± 1.1 |

Same assay, conditions: comment on Table 3

| Compound | activity level for GPR39 (in words) |
| --- | --- |
| CCCCCCCC(=O)NCCCC[C@H](NC(=O)[C@@H](N)Cc1c[nH]c(-c2cccs2)n1)C(=O)N[C@H](Cc1ccc(C)cc1)C(=O)N[C@@H](Cc1ccc(O)cc1)C(=O)O [HKFY-63, ((R)-2-((S)-2-((S)-2-amino-3-(2-(thiophen-2-yl)-1H-imidazol-4-yl)propanamido)-6-octanamidohexanamido)-3-(p-tolyl)propanoyl)-L-tyrosine] | higher activity level than other HKFY derivatives |
